Broadly, the Km is the concentration of substrate that gives half-maximal velocity. By Kd is commonly meant a measure of binding affinity in units of concentration. A high value points to lower affinity. In general, IC50 refers to the concentration at which inhibition is half-maximal. High values mean weaker potency, low ones greater potency.

In test [1] the target is T1, association of PtdIns 3-kinase with mT/pp60^c-src complex (Rattus norvegicus, UniProt Q63787).
T1 construct: from tissue; host or cells: rat liver (PtdIns 3-kinase); mT/pp60c-src complex immunopurified from baculovirus-infected Sf9 cells
T1 sequence (Q63787 whole entry, one chain of several): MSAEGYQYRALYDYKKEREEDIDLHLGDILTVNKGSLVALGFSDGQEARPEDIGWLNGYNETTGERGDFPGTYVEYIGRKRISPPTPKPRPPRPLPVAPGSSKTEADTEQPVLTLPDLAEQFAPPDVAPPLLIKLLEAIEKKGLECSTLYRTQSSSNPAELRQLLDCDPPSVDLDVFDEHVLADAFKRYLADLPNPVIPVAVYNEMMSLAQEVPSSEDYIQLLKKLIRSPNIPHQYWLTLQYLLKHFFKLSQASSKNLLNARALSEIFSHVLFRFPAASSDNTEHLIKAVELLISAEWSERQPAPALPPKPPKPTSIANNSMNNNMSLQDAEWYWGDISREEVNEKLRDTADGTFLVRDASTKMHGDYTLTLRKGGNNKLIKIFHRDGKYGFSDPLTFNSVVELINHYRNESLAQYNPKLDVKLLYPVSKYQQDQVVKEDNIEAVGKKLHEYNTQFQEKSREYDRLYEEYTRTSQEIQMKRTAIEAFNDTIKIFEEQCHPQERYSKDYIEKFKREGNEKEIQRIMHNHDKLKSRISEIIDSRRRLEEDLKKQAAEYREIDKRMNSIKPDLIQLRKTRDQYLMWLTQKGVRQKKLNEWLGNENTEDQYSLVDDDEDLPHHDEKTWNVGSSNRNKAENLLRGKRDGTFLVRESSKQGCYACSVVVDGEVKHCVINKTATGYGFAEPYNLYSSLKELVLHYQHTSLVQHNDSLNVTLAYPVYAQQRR
Nature of the test: Peptide competition of PtdIns 3-kinase association with immunopurified mT/pp60^c-src. The settings on record: Tran^35 S-labelled Rat-1 whole cell lysates, gel electrophoresis. Format: biochemical. Here is the method: (§1) In vitro association of phosphatidylinositol 3-kinase with immunopurified mT/pp60^c-src was assayed as follows. Washed mT/pp60^c-src immune complexes were incubated with purified PtdIns 3-kinase in 750 μl to 1 ml of standard lysis buffer (see above) at 4° C. on a platform rocker. The typical incubation was for 2-3 hours after which the complexes were collected by a brief centrifugation and washed twice with 1% […], twice with 0.5M LiCl in 0.1M Tris-HCl, and twice with TNE.
(§2) Mammalian whole cell lysates were prepared from confluent 10 cm cell culture plates. The monolayer was washed once with 4° C. PBS and lysed in 1.0 ml of standard lysis buffer. After 10 minutes of incubation on a rocker platform at 4° C., the cells were scrape harvested and lysates cleared by centrifugation at 12,000×g for 5 minutes at 4° C. Lysates were used immediately for association experiments with the immunopurified mT/pp60^c-src complex.
(§3) Phosphatidylinositol kinase assays and protein kinase assays were performed as follows. Phosphatidylinositol kinase assays were performed directly on the immune complex as described, Whitman et al., 1985, supra; Auger et al., 1989, supra. Sonicated phospholipids were added to the washed beads and the reaction was initiated with the addition of 50 μM ATP, 5-25 μCi [γ^32 P]ATP (3000/Ci/mmole), 5 mM MgCl2 in 20 mM HEPES (pH 7.5). Reactions were incubated for 5 minutes at room temperature. The 50 μl reactions were stopped by the addition of 80 μl of 1M HCl and 1 μl of 500 mM EDTA. The lipids were extracted with 160 μl of methanol:chloroform (1:1) and the organic layer was collected for analysis.
(§4) The major site of tyrosine phosphorylation on mT by pp60^c-src is tyrosine 315. […]
(§5) Proteins that were prevented from associating with the mT/pp60^c-src complex by the phosphorylated peptide were also determined. […]

The test system of test [2] is association of PtdIns 3-kinase with mT/pp60^c-src complex. Described as above. It counts as biochemical. The following applies: peptide pre-incubated with whole cell lysates. Here is the method:
as §1, §2, §3, §4, §5

Test [3] deals with T2, association between pp60^c-grc /mT and PI 3-kinase (Mus musculus, UniProt P26450).
T2 construct: endogenous in cells; host or cells: Balb/3T3 cells (PI 3-kinase); pp60c-src/mT from baculovirus-infected Sf9 cells
T2 sequence (P26450 whole entry): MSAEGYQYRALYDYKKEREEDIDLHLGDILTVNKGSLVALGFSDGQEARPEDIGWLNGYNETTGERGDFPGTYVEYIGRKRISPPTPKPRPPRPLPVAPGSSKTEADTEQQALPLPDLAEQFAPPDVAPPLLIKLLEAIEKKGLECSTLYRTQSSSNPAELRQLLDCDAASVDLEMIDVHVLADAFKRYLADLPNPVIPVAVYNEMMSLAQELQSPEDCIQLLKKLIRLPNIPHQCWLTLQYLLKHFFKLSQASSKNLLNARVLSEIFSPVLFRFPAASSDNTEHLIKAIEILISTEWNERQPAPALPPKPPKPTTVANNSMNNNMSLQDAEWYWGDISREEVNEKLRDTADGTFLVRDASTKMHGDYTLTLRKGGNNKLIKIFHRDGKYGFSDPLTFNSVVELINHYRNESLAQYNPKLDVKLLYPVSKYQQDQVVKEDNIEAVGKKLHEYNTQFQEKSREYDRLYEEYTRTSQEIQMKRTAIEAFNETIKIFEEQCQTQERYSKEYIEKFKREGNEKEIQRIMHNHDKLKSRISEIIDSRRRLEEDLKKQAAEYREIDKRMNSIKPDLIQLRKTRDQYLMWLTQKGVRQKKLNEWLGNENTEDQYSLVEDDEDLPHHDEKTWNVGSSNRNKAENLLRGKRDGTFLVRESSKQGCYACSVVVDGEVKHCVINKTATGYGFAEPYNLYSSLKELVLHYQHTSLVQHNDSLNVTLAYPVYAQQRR
The settings on record: presence of vanadate; Auger et al., 1992; cited from earlier work.

In the next test the target is T3, Rat PTPase 1B (Rattus norvegicus, UniProt P20417).
T3 construct: cloning the full-length cDNA into the bacterial expression vector, PKK233-2; made in house; host or cells: bacteria (vector PKK233-2)
T3 sequence (P20417 1-432): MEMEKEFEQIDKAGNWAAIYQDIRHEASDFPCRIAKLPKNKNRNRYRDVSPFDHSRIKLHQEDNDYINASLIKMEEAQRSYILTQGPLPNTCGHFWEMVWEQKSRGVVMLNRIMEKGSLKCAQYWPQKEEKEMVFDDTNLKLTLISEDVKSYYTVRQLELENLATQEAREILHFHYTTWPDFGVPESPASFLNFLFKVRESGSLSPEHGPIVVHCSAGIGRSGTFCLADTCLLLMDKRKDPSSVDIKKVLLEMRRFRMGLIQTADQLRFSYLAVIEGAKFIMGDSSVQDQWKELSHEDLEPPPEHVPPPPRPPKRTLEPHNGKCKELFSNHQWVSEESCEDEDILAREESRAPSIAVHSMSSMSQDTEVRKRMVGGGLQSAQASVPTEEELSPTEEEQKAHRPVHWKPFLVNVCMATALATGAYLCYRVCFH
Nature of the test: PTPase 1B peptide dephosphorylation (Km) and inhibition (Ki). The settings on record: apparent Km, phosphotyrosine and pY-peptides as substrates. Format: biochemical. Here is the method:
The phosphopeptides were used as substrates of PTPase 1B, a single catalytic domain PTPase with a […] tissue distribution (Hunter et al., 1989, cell 58:1013). Rat PTPase 1B (Guan et al., 1990, Proc. Natl., Acad. Sci. USA 87:1501) was obtained by PCR and cloning the full-length cDNA into the bacterial expression vector, PKK233-2.
Sequence specificity for peptide dephosphorylation was observed, with apparent Km values ranging from <2 μM for the phospho-middle t sequence to >2 mM for pTyr itself (Table 3).
Several phosphono peptides were tested for the ability to inhibit PTPase 1B activity and KI values determined by methods known to those skilled in the art.

The target in test [4] is T4, p85 SH2 domains (SH2/GST fusion protein) (Homo sapiens, UniProt P27986).
T4 construct: GST
T4 sequence (P27986 333-428 limits assumed): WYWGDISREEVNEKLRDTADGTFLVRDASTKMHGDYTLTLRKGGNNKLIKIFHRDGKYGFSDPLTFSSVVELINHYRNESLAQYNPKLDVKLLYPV
The test is described as follows: Biospecific interaction analysis of binding to p85 SH2 domains. The settings on record: isolated SH2 domains of PI 3-kinase p85; overview statement. The protocol: Therefore, mT-pY315 binding to p85 SH2 domains was analyzed using biospecific interaction analysis as previously described to obtain a more accurate estimate for KD. Series of data were obtained during real-time binding experiments with different concentrations of SH2/GST fusion protein (data not shown).

Test [5] has as its target T5, N-terminal p85 SH2/GST fusion protein (Homo sapiens, UniProt P27986).
T5 construct: N-terminal p85 SH2/GST fusion proteins (100 nM)
The test is described as follows: biochemical. It counts as binding. The protocol:
Peptide Binding to Isolated Glutathione S-Transferase/SH2 Domain Fusion Proteins was determined as follows. N-terminal p85 SH2/GST fusion proteins (100 nM) (Hu et al., 1992, Mol. Cell. Biol. 12:981-990), 35 fmol of HPLC-purified, [^125 I]Bolton-Hunter-treated phosphopeptide (67 nCi) and varying concentrations of unlabeled peptides were combined in 200 μl total volume of 20 mM tris-HCl, 250 mM NaCl, 0.1% bovine serum albumin, 10 mM dithiothreitol, pH 7.4. Glutathione-agarose (25 μl of a 1:4 aqueous slurry, Molecular Probes) was added and the samples were incubated at 22° C. for 4 h. Following centrifugation for 5 min at 12,000×g, supernatant solutions were removed by aspiration and [^125 I]radioactivity associated with the pellets was determined with a […].
Phosphopeptide and phosphonopeptide binding to p85 SH2 domains. To investigate the mechanism of phosphonopeptide inhibition of association direct binding to an isolated SH2 domain of the p85 of PI 3-kinase was analyzed. In the assay, tracer amounts of [^125 I]-labeled phosphopeptide, SH2 domain/GST fusion protein, and varying concentrations of unlabeled peptides were incubated together along with glutathione-agarose. […] ID50 values were determined as the concentration of unlabeled peptide required to inhibit 50% of specific [^125 I]phosphopeptide binding. […]

The test system of test [6] is IRS-1/PI 3-kinase association. The test is described as follows: Inhibition of association of PI 3-kinase activity (CHO cell extract) with immobilized phosphorylated IRS-1. It counts as biochemical. The following applies: dose-response studies. Here is the method:
Inhibiting interactions between IRS-1 and PI 3-kinase IRS-1 produced in a baculovirus expression system was adsorbed to anti-peptide (IRS-1) antibodies and phosphorylated by solubilized insulin receptors (which were then washed away). […] After incubation and additional washing, PI 3-kinase activity associated with the immobilized IRS-1 was determined as described, Auger et al. PI 3-kinase activity associated with IRS-1 only after phosphorylation by the insulin receptor. Various peptides were added during incubation of immobilized IRS-1 with the ChO cell extract (PI 3-kinase) to determine their ability to block association. Concentration dependent effects of phosphorylated vs. unphosphorylated middle T and IRS-1 […] YMXM sequences were determined. […] A detailed study of these effects is a major target of this proposal.

Non-standard residues stand in square brackets, D forms with d. Residues, ends and D or L forms follow the SMILES beside them. No end group written: not given here. Pmp = N[C@@H](Cc1ccc(CP(=O)(O)O)cc1)C(=O)O; dPmp = N[C@H](Cc1ccc(CP(=O)(O)O)cc1)C(=O)O; pY = N[C@@H](Cc1ccc(OP(=O)(O)O)cc1)C(=O)O

T5 sequence (P27986 333-428 limits assumed): as above

“RENEYMPMAPQIH [unphosphorylated peptide, unphosphorylated version of the hamster mT peptide]”: in test [1], the “effect on association of labelled proteins (110 kDa doublet, 85 kDa) with mT/pp60^c-src” value is recorded as “did not affect this association”. The figures for the “effect on association of PtdIns 3-kinase with mT/pp60^c-src” value in test [2] (listed as non-phosphorylated peptide) and in test [2] (listed as unphosphorylated version of the peptide) were “had no effect on the association” and “did not affect the association”, respectively. The “activity on association between pp60^c-grc /mT and PI 3-kinase” value in test [3] is “no detectable activity”.

Regarding `CC[C@H](C)[C@H](NC(=O)[C@H](CC(=O)O)NC(=O)[C@@H](N)CCCNC(=N)N)C(=O)N[C@@H](Cc1ccc(O)cc1)C(=O)N[C@@H](CCC(=O)O)C(=O)N[C@H](C(=O)N[C@@H](CC(=O)O)C(=O)N[C@@H](Cc1ccc(O)cc1)C(=O)N[C@@H](Cc1ccc(OP(=O)(O)O)cc1)C(=O)N[C@@H](CCCNC(=N)N)C(=O)N[C@@H](CCCCN)C(=O)O)[C@@H](C)O` [IR1155-1165(pY1163), RDIYETDYpYRK] (H-RDIYETDY[pY]RK-OH), at Rat PTPase 1B, the Michaelis constant (Km) was determined as 30 µM.

`CSCC[C@H](NC(=O)[C@@H]1CCCN1C(=O)[C@H](CCSC)NC(=O)[C@H](Cc1ccc(CP(=O)(O)O)cc1)NC(=O)[C@H](CCC(=O)O)NC(=O)[C@H](CCC(=O)O)NC(=O)[C@@H](N)CCC(=O)O)C(=O)N[C@@H](CCC(=O)O)C(=O)N[C@@H](CC(=O)O)C(=O)N[C@@H](CC(C)C)C(=O)N[C@@H](Cc1ccc(O)cc1)C(=O)O` [L-mT-Pmp315] (H-EEE[Pmp]MPMEDLY-OH) showed a Kd in test [4] of 10 to 20 nM. This molecule registered a concentration for half-maximal inhibition (IC50) in test [5] of 7.2 µM.

On to “pY628: phosphorylated form of IRS-1 YMXM sequence Y628 (SEQ ID NO: 26, Table 1) (RKGNGDG[pY]MPMSPKSV)”, for which the “ED50 for inhibition of IRS-1/PI 3-kinase association” value in test [6] is at most 50 nM.

`CSCC[C@H](NC(=O)[C@@H]1CCCN1C(=O)[C@H](CCSC)NC(=O)[C@H](Cc1ccc(OP(=O)(O)O)cc1)NC(=O)[C@H](CC(=O)O)NC(=O)CNC(=O)[C@H](CC(N)=O)NC(=O)CN)C(=O)N[C@@H](CO)C(=O)N1CCC[C@H]1C(=O)N[C@@H](CCCCN)C(=O)N[C@@H](CO)C(=O)O` [IRS-1(pY628), GNGDpYMPMSPKS] (H-GNGD[pY]MPMSPKS-OH): the Michaelis-Menten constant (Km) on Rat PTPase 1B amounted to 100 µM.

Take `CC[C@H](C)[C@H](NC(=O)[C@H](CC(=O)O)NC(=O)[C@@H](N)CCCNC(=N)N)C(=O)N[C@@H](Cc1ccc(O)cc1)C(=O)N[C@@H](CCC(=O)O)C(=O)N[C@H](C(=O)N[C@@H](CC(=O)O)C(=O)N[C@@H](Cc1ccc(OP(=O)(O)O)cc1)C(=O)N[C@@H](Cc1ccc(O)cc1)C(=O)N[C@@H](CCCNC(=N)N)C(=O)N[C@@H](CCCCN)C(=O)O)[C@@H](C)O` [IR1155-1165(pY1162), RDIYETDpYYRK] (H-RDIYETD[pY]YRK-OH): the Michaelis constant (Km) at Rat PTPase 1B was determined as 40 µM.

As for `CSCC[C@H](NC(=O)[C@@H]1CCCN1C(=O)[C@H](CCSC)NC(=O)[C@@H](Cc1ccc(CP(=O)(O)O)cc1)NC(=O)[C@H](CCC(=O)O)NC(=O)[C@H](CCC(=O)O)NC(=O)[C@@H](N)CCC(=O)O)C(=O)N[C@@H](CCC(=O)O)C(=O)N[C@@H](CC(=O)O)C(=O)N[C@@H](CC(C)C)C(=O)N[C@@H](Cc1ccc(O)cc1)C(=O)O` [D-mT-Pmp315] (H-EEE[dPmp]MPMEDLY-OH), in test [5], 131 µM corresponded to half-maximal inhibition (IC50).

The values are drawn from patent publication US5801149A, “Inhibition of signal transduction molecules” (Joslin D-abetes Center, Inc., priority 1995, dated 1998).
